The source of these data is patent US8835476B2, “Synthesis of novel antimicrobials” (priority 2005, dated 2014).

Some results are limits rather than exact numbers.

Data set [1] relates to E. coli BL21 cells. The data set can be described thus: Inhibition of E. coli growth in liquid culture (OD 600 nm). The format is cell-based. Particulars: for growth inhibitory activity, E. coli liquid culture: only at the highest concentration tested (1 mM); for growth inhibitory activity, E. coli liquid culture / growth of E. coli in liquid culture: FIG. 11. How it is done: Compounds to be tested were dissolved in ethanol or DMSO and subsequently diluted into of Luria broth. The final concentration of ethanol (2%, v/v) or DMSO (1%, v/v) had minimal effect on growth rate. Culture tubes were subsequently inoculated with E. coli BL21 or D22 cells to an optical density (at 600 nm) of 0.01 and incubated on a rotary shaker at 37° C. The optical density at 600 nm of 100 μl samples was measured at indicated time points.

Data set [2] concerns the target T1, recombinant E. coli LpxA (Escherichia coli, UniProt P0A722).
T1 construct: 6xHis (C); made in house; host or cells: E. coli BL21 (pET23b)
Nature of the data set: LpxA assay: acyl-UDP-GlcNAc formation from UDP-[3H]GlcNAc, TLC. It counts as biochemical. The following applies: for inhibition at 5000 µM: 5 mM compound, FIG. 8. The source says: The lpxA gene was amplified from an E. coli genomic library and inserted into a pET23b vector using standard recombinant DNA methodology. The 5′ oligonucleotide for amplification of the LpxA open reading frame was 5′-[…]-3′ (SEQ ID NO. 1) and contains a BamHI restriction enzyme site upstream of the LpxA ATG start codon and the 3′ oligonucleotide was 5′-[…]-3′ (SEQ ID NO. 2) and contains a XhoI restriction enzyme site downstream of the final codon of the LpxA open reading frame. Primers were custom synthesized. The primers were designed such that digestion of the amplification product would result in addition of a C-terminal 6×-His tag in frame with the LpxA open reading frame. Specifically, E. coli genomic DNA was isolated and an amplification reaction was carried out as follows: 33 μl water, 5 μl 10× reaction buffer, 1.5 μl of 50 mM magnesium sulfate, 3 μl of 10 mM dNTPs, 3 μl of a 50 μM solution of the 5′ LpxA primer, 3 μl of a 50 μM solution of the 3′ LpxA primer, 0.5 μl of E. coli genomic DNA solution, and 1 μl of polymerase. The reaction conditions were as follows: 94° C. for 2 minutes; followed by 30 cycles of 94° C. for 30 seconds, 50° C. for 30 seconds, 68° C. for 1.5 minutes, followed by an extension at 68° C. for 7 minutes. The resulting LpxA product was separated from other DNA on a 0.8% agarose gel and isolated from the gel. The LpxA open reading frame was cloned into a topoisomerase I-activated vector and transformed into E. coli. […] The newly synthesized plasmid containing the BamHI- and XhoI-flanked LpxA open reading frame and plasmid pET23a were digested with BamHI and XhoI at 37° C. for 2 hours, DNA was separated by agarose gel electrophoresis, isolated from the gel, and ligated. Ligation reactions were transformed into chemically competent E. coli and plasmid DNA was isolated. Restriction mapping was performed to determine which plasmids contained the LpxA open reading frame. To remove the T7 epitope coding sequence from the 5′end of the LpxA open reading frame, the pET23a plasmid containing the LpxA open reading frame was digested with the restriction enzymes BamHI and XhoI and a pET23b plasmid was digested with BglII and XhoI, DNA was separated by agarose gel electrophoresis, isolated from the gel, and ligated. Ligation reactions were transformed into chemically competent E. coli and plasmid DNA was isolated. Restriction mapping was performed to assess plasmids containing the LpxA open reading frame.
A 5 ml culture of E. Coli BL21 cells expressing the LpxA-6×His plasmid was grown overnight at 37° C. in LB medium containing 50 μg/ml ampicillin and 34 μg/ml chloramphenicol, then subcultured into 500 ml of the same medium and grown at 37° C. until A600=0.6. LpxA expression was induced by addition of 0.5 mM IPTG for three hours. The cells were centrifuged at 7 000×g for 10 minutes at 4° C. and lysed using a mild, nonionic detergent. The soluble fraction containing LpxA was added to 1 ml of nickel affinity resin in a 15 ml Falcon tube; the resin was washed extensively with extraction/wash buffer (50 mM Na-phosphate (pH 7.0) and 300 mM NaCl) prior to use. This mixture was incubated on a rotating platform at low speed for 20 minutes at room temperature. The resin was centrifuged at 1000 rpm in a bench top centrifuge for 2 min, washed twice (10 min each) with 10 ml of extraction/wash buffer, resuspended in 10 ml of extraction/wash buffer, and transferred to a 10 ml polypropylene disposable protein purification column. The column was eluted with 5 ml of 50 mM Na-phosphate (pH 7.0) containing 300 mM NaCl and 150 mM imidazole, collected in 1 ml fractions. The eluate was analysed by SDS-PAGE and was visualised using a protein stain (FIG. 7 inset).
Recombinant Vibrio harveyi acyl carrier protein was prepared from a GST fusion protein as described previously (Flaman et al., 2001). […]

Data set [3] deals with LPS synthesis in E. coli strain D22. Nature of the data set: In vivo LPS synthesis: [3H]galactose incorporation into acid-precipitable material. The format is cell-based. Particulars: 0.1 mM, FIG. 10B. How it is done: LpxA catalyzes the first step in the synthesis of lipid A (the hydrophobic anchor of LPS), which is essential for the growth and pathogenesis of many gram-negative bacteria. The inhibition of LpxA activity would therefore result in decreased synthesis of LPS. To measure the synthesis of LPS in vivo, the incorporation of radiolabelled galactose into acid-precipitable material was determined. The E. coli strain used for these studies was D22 (obtained from the E. coli Genetic Stock Center), which contains a mutation in the LpxC gene (lpxC101; Normark et al., 1969, J Bacteriol 97, 1334). Strains harbouring this mutation have an increased susceptibility to antibiotics, in addition to producing approximately 30% less LPS (Grundstrom et al., 1980, J Bacteriol 144, 884.). Bacteria were grown in Luria broth to early-log phase, at which point, 500 μl was transferred to a culture tube containing 1 μl of [^3H]galactose (final concentration, 0.2 mM, 20 μCi/μmol) and mixed. Cultures were incubated at 30° C. for 75 minutes with shaking at 220 rpm. Incorporation was terminated by adding 400 μl of labelled culture to 44.4 μl of 100% trichloroacetic acid (TCA, 10% final concentration) in a 1.5 ml microcentrifuge tube. Tubes were vortexed, incubated on ice for 30 minutes, then centrifuged at 14 000 rpm for 5 minutes at room temperature. The pellet was rinsed twice with 1 ml of ice-cold 10% TCA, resuspended in 50 μl of formic acid, and transferred to a scintillation vial for counting.
Compounds to be tested were dissolved in DMSO and added to the bacterial culture prior to labelling with galactose, and LPS synthesis was determined as described previously. The final concentration of DMSO (1%, v/v) had minimal effect on LPS synthesis.

T1 sequence (P0A722 whole entry): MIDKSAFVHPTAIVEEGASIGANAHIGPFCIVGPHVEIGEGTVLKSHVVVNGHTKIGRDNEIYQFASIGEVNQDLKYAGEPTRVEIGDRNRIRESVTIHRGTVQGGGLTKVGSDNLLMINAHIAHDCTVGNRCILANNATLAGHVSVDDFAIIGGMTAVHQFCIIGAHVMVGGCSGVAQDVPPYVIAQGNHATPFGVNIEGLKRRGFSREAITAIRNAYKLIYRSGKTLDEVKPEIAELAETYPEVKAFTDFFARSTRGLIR

A word on the melting point: it is the temperature of the solid-liquid transition. In turn, `COC(=O)c1cc(-c2nnn(C)n2)c(C(=O)OC)s1` [DNM-114, 3-(2-methyl-2H-tetrazol-5-yl)-thiophene-2,5-dicarboxylic acid dimethyl ester] registered a melting point of 121 to 122 °C.
The term inhibition denotes how much of the control response was suppressed. Consider `Cn1nnc(-c2cc(C(=O)O)sc2-c2ccc(F)cc2)n1` [DNM-123, 5-(4-fluorophenyl)-4-(2-methyl-2H-tetrazol-5-yl)thiophene-2-carboxylic acid], for which the “growth inhibitory activity, E. coli liquid culture” value in data set [1] was “Substantial growth inhibitory activity”. Besides, the inhibition at 500 µM in data set [2] (500 μM, FIG. 9) is ~60%. The inhibition at 5000 µM in data set [2] is > 80%.
Take `CCOC(=O)c1cc(-c2nnn[nH]2)c(-c2ccc(F)cc2)s1` [DNM-124, 5-(4-Fluoro-phenyl)-4-(1H-tetrazol-5-yl)-thiophene-2-carboxylic acid ethyl ester]: in data set [1], the “growth inhibitory activity, E. coli liquid culture” value is listed as “Substantial growth inhibitory activity”. Moreover, the inhibition at 5000 µM in data set [2] is > 80%.
Compound `CCOC(=O)c1cc(-c2nnn(C)n2)c(-c2ccc(F)cc2)s1` [DNM-125, ethyl 5-(4-fluorophenyl)-4-(2-methyl-2H-tetrazol-5-yl)thiophene-2-carboxylate] showed a melting point of 108 to 110 °C.
On to `Fc1ccc(-c2cc(-c3nnn[nH]3)c(-c3ccc(F)cc3)s2)cc1` [DNM-131, 5-(2,5-Bis(4-fluorophenyl)thiophen-3-yl)-1H-tetrazole], for which the “growth of E. coli in liquid culture” value in data set [1] (10 μM) is on record as “partial inhibition”; in data set [1] (0.1 or 1 mM), “no growth”. The inhibition at 5000 µM in data set [2] was > 80%. The “inhibition of LpxA activity” value in data set [2] (concentrations above 500 μM, FIG. 9) is recorded as “almost complete inhibition”. In data set [3], the “decrease of LPS synthesis” value is reported as “approximately 70%”.
Compound `Cn1nnc(-c2cc(-c3ccc(F)cc3)sc2-c2ccc(F)cc2)n1` [DNM-132, 5-(2,5-bis(4-fluorophenyl)thiophen-3-yl)-2-methyl-2H-tetrazole] yielded a melting point of 150 to 152 °C.
Regarding `O=C(O)c1sc(-c2ccc(F)cc2)cc1-c1nnn[nH]1` [DNM-141, 5-(4-Fluoro-phenyl)-3-(1H-tetrazol-5-yl)-thiophene-2-carboxylic acid], the “growth inhibitory effect, E. coli liquid culture” value in data set [1] (concentrations tested in FIG. 11) is “no apparent effect”. Further, the inhibition at 5000 µM in data set [2] was > 80%.
With `Cn1nnc(-c2cc(-c3ccc(F)cc3)sc2C(=O)O)n1` [DNM-142, 5-(4-Fluoro-phenyl)-3-(2-methyl-2H-tetrazol-5-yl)-thiophene-2-carboxylic acid], in data set [2], the inhibition at 5000 µM was > 70%.
As for `COC(=O)c1sc(-c2ccc(F)cc2)cc1-c1nnn(C)n1` [DNM-144, 5-(4-fluoro-phenyl)-3-(2-methyl-2H-tetrazol-5-yl)-thiophene-2-carboxylic acid methyl ester], the melting point was in the range of 131.5 to 132.5 °C.
